Numbers after ± are expanded uncertainties.
Columns and labels:
[1] = Liquid; for mass density: 101.33 kPa
[2] = refractive index (Na D-line) (dimensionless); conditions: 101.33 kPa, Liquid, Standard Abbe refractometry

COC=O [methyl methanoate]
Conditions	mass density [kg/m3]	refractive index	vapor or sublimation pressure [kPa]
[1], 299.15 K	964.78 ± 0.43	–	–
[1], 301.23 K	–	–	88.7 ± 0.94
[1], 301.42 K	–	–	89.37 ± 0.94
[1], 301.78 K	–	–	90.67 ± 0.95
[1], 302.15 K	–	–	91.98 ± 0.96
[1], 302.53 K	–	–	93.31 ± 0.96
[1], 302.89 K	–	–	94.64 ± 0.97
[1], 303.41 K	–	–	95.98 ± 0.98
[1], 303.77 K	–	–	97.36 ± 0.98
[1], 304.13 K	–	–	98.69 ± 0.99
[1], 304.44 K	–	–	99.97 ± 1
[1], 304.79 K	–	–	101.32 ± 1
[1], 304.83 K	–	–	101.39 ± 1
[1], 305.21 K	–	–	102.89 ± 1
[1], 305.51 K	–	–	104.06 ± 1
[1], 305.85 K	–	–	105.38 ± 1
[1], 306.2 K	–	–	106.72 ± 1
[1], 306.54 K	–	–	108.06 ± 1
[1], 306.84 K	–	–	109.39 ± 1
[1], 307.2 K	–	–	110.77 ± 1.1
[1], 307.54 K	–	–	112.13 ± 1.1
[1], 307.85 K	–	–	113.44 ± 1.1
[1], 308.13 K	–	–	114.75 ± 1.1
[1], 308.47 K	–	–	116.1 ± 1.1
[1], 308.81 K	–	–	117.47 ± 1.1
[1], 309.15 K	–	–	118.77 ± 1.1
[1], 309.43 K	–	–	120.12 ± 1.1
[1], 309.72 K	–	–	121.43 ± 1.1
[1], 310.03 K	–	–	122.74 ± 1.1
[1], 310.33 K	–	–	124.08 ± 1.1
[1], 310.64 K	–	–	125.47 ± 1.1
[1], 310.92 K	–	–	126.77 ± 1.1
[1], 311.19 K	–	–	128.14 ± 1.1
[1], 311.48 K	–	–	129.44 ± 1.1
[1], 311.78 K	–	–	130.75 ± 1.1
[1], 312.06 K	–	–	132.09 ± 1.2
[1], 312.37 K	–	–	133.48 ± 1.2
[1], 312.67 K	–	–	134.81 ± 1.2
[1], 312.9 K	–	–	136.09 ± 1.2
[1], 313.17 K	–	–	137.42 ± 1.2
[1], 313.45 K	–	–	138.75 ± 1.2
[1], 313.74 K	–	–	139.83 ± 1.2
[1], 314.01 K	–	–	141.42 ± 1.2
[1], 314.3 K	–	–	142.78 ± 1.2
[1], 314.37 K	–	–	143.32 ± 1.2
[1], 314.6 K	–	–	144.13 ± 1.2
[1], 314.63 K	–	–	144.65 ± 1.2
[1], 314.88 K	–	–	145.45 ± 1.2
[1], 314.93 K	–	–	145.65 ± 1.2
[1], 315.12 K	–	–	146.74 ± 1.2
[1], 315.18 K	–	–	147.03 ± 1.2
[1], 315.52 K	–	–	148.79 ± 1.2
[1], 315.56 K	–	–	149.41 ± 1.2
[1], 315.77 K	–	–	150.23 ± 1.2
[1], 316 K	–	–	151.48 ± 1.2
[1], 316.06 K	–	–	152.08 ± 1.3
[1], 316.23 K	–	–	152.97 ± 1.3
[1], 316.47 K	–	–	154.04 ± 1.3
[1], 316.57 K	–	–	154.75 ± 1.3
[1], 316.71 K	–	–	155.22 ± 1.3
[1], 316.95 K	–	–	156.54 ± 1.3
[1], 317.05 K	–	–	157.42 ± 1.3
[1], 317.17 K	–	–	157.73 ± 1.3
[1], 317.36 K	–	–	158.92 ± 1.3
[1], 317.4 K	–	–	159.14 ± 1.3
[1], 317.64 K	–	–	160.45 ± 1.3
[1], 317.88 K	–	–	161.72 ± 1.3
[1], 318 K	–	–	162.65 ± 1.3
[1], 318.34 K	–	–	164.18 ± 1.3
[1], 318.51 K	–	–	165.32 ± 1.3
[1], 318.68 K	–	–	166.44 ± 1.3
[1], 319.07 K	–	–	168.3 ± 1.3
[1], 319.37 K	–	–	170 ± 1.4
[1], 319.45 K	–	–	170.76 ± 1.4
[1], 319.67 K	–	–	171.98 ± 1.4
[1], 319.93 K	–	–	173.32 ± 1.4
[1], 320.22 K	–	–	174.76 ± 1.4
[1], 320.34 K	–	–	175.82 ± 1.4
[1], 320.65 K	–	–	177.38 ± 1.4
[1], 320.78 K	–	–	178.57 ± 1.4
[1], 321.04 K	–	–	180.01 ± 1.4
[1], 321.34 K	–	–	181.7 ± 1.4
[1], 321.46 K	–	–	182.37 ± 1.4
[1], 321.72 K	–	–	184.02 ± 1.4
[1], 321.94 K	–	–	185.46 ± 1.4
[1], 322.2 K	–	–	186.83 ± 1.4
[2], 299.15 K	–	1.3402 ± 0.0007	–

CCC(=O)OC [methyl propanoate]
Conditions	mass density [kg/m3]	refractive index	vapor or sublimation pressure [kPa]
[1], 318.15 K	884.3 ± 0.51	–	–
[1], 325.88 K	–	–	40.08 ± 0.7
[1], 327.07 K	–	–	42.57 ± 0.71
[1], 328.03 K	–	–	44.13 ± 0.72
[1], 329 K	–	–	45.29 ± 0.72
[1], 329.68 K	–	–	46.72 ± 0.73
[1], 330.24 K	–	–	47.97 ± 0.74
[1], 330.7 K	–	–	49.34 ± 0.74
[1], 332 K	–	–	50.58 ± 0.75
[1], 332.74 K	–	–	51.89 ± 0.75
[1], 333.19 K	–	–	53.37 ± 0.76
[1], 334.04 K	–	–	54.63 ± 0.77
[1], 334.49 K	–	–	55.93 ± 0.77
[1], 335.63 K	–	–	57.49 ± 0.78
[1], 335.97 K	–	–	58.57 ± 0.79
[1], 336.7 K	–	–	60.05 ± 0.8
[1], 337.5 K	–	–	61.5 ± 0.8
[1], 338.06 K	–	–	62.73 ± 0.81
[1], 338.52 K	–	–	64.17 ± 0.82
[1], 339.43 K	–	–	66.58 ± 0.83
[1], 339.71 K	–	–	67.89 ± 0.83
[1], 340.73 K	–	–	69.17 ± 0.84
[1], 341.07 K	–	–	70.53 ± 0.85
[1], 341.52 K	–	–	71.89 ± 0.86
[1], 341.72 K	–	–	72.42 ± 0.86
[1], 342.35 K	–	–	73.37 ± 0.86
[1], 342.6 K	–	–	75.37 ± 0.87
[1], 342.88 K	–	–	75.83 ± 0.87
[1], 343.25 K	–	–	75.91 ± 0.88
[1], 343.95 K	–	–	77.99 ± 0.89
[1], 344.15 K	–	–	78.43 ± 0.89
[1], 344.25 K	–	–	78.74 ± 0.89
[1], 344.75 K	–	–	79.89 ± 0.9
[1], 345.4 K	–	–	82.35 ± 0.91
[1], 345.65 K	–	–	82.59 ± 0.91
[1], 346.32 K	–	–	84.18 ± 0.92
[1], 346.57 K	–	–	85.43 ± 0.93
[1], 346.65 K	–	–	86.74 ± 0.94
[1], 347.23 K	–	–	87.87 ± 0.93
[1], 347.4 K	–	–	88.1 ± 0.94
[1], 348.15 K	–	–	90.74 ± 0.95
[1], 348.73 K	–	–	91.95 ± 0.96
[1], 348.98 K	–	–	93.23 ± 0.96
[1], 349.23 K	–	–	94.6 ± 0.97
[1], 349.73 K	–	–	96.03 ± 0.98
[1], 350.23 K	–	–	97.26 ± 0.98
[1], 350.59 K	–	–	98.7 ± 0.99
[1], 350.99 K	–	–	100 ± 1
[1], 351.65 K	–	–	101.32 ± 1
[1], 352.23 K	–	–	102.75 ± 1
[1], 352.4 K	–	–	103.87 ± 1
[1], 352.82 K	–	–	105.43 ± 1
[1], 352.9 K	–	–	106.58 ± 1
[1], 353.73 K	–	–	107.82 ± 1.1
[1], 353.82 K	–	–	109.39 ± 1
[1], 354.15 K	–	–	110.78 ± 1.1
[1], 354.57 K	–	–	112.07 ± 1.1
[1], 354.82 K	–	–	113.15 ± 1.1
[1], 355.65 K	–	–	114.82 ± 1.1
[1], 355.74 K	–	–	115.9 ± 1.1
[1], 355.82 K	–	–	117.13 ± 1.1
[1], 356.32 K	–	–	118.57 ± 1.1
[1], 356.9 K	–	–	120.15 ± 1.1
[1], 357.15 K	–	–	121.17 ± 1.1
[1], 357.39 K	–	–	122.81 ± 1.1
[1], 357.9 K	–	–	123.81 ± 1.1
[1], 358.24 K	–	–	124.65 ± 1.1
[1], 358.48 K	–	–	126.73 ± 1.1
[1], 358.65 K	–	–	127.87 ± 1.1
[1], 358.98 K	–	–	129.37 ± 1.1
[1], 359.32 K	–	–	130.43 ± 1.1
[1], 359.48 K	–	–	130.89 ± 1.1
[1], 359.98 K	–	–	133.25 ± 1.2
[1], 360.4 K	–	–	134.57 ± 1.2
[1], 360.57 K	–	–	135.81 ± 1.2
[1], 361.08 K	–	–	137.35 ± 1.2
[1], 361.4 K	–	–	138.56 ± 1.2
[1], 361.73 K	–	–	140 ± 1.2
[1], 361.9 K	–	–	141.21 ± 1.2
[1], 362.44 K	–	–	142.57 ± 1.2
[1], 362.57 K	–	–	144.11 ± 1.2
[1], 363.07 K	–	–	145.35 ± 1.2
[1], 363.4 K	–	–	146.48 ± 1.2
[1], 363.73 K	–	–	148.09 ± 1.2
[1], 363.91 K	–	–	149.39 ± 1.2
[1], 364.4 K	–	–	151.04 ± 1.2
[1], 364.57 K	–	–	152.48 ± 1.3
[1], 364.9 K	–	–	153.26 ± 1.3
[1], 364.99 K	–	–	154.82 ± 1.3
[1], 365.38 K	–	–	156.06 ± 1.3
[1], 365.48 K	–	–	156.17 ± 1.3
[1], 365.82 K	–	–	158.49 ± 1.3
[1], 365.9 K	–	–	159.73 ± 1.3
[1], 366.15 K	–	–	160.57 ± 1.3
[1], 366.57 K	–	–	162.57 ± 1.3
[1], 366.65 K	–	–	163.38 ± 1.3
[1], 367.15 K	–	–	165.17 ± 1.3
[1], 367.4 K	–	–	166.74 ± 1.3
[1], 367.82 K	–	–	167.89 ± 1.3
[2], 318.15 K	–	1.3641 ± 0.0007	–
